Reference: PubChem BioAssay (NCI)
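These data come from cells grown in 96-well plates and exposed to compound for 48 hours at five concentrations. GI50 is the concentration that inhibits growth by half. TGI: total growth inhibition.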

Tests used:
Test in all cases: NCI anticancer screen, dose series, 48 h
NCI-H23 lung = tested on: NCI-H23 lung
SNB-19 CNS = tested on: SNB-19 CNS
T-47D breast = tested on: T-47D breast
SF-295 CNS = tested on: SF-295 CNS
HL-60(TB) leukemia = tested on: HL-60(TB) leukemia
HCC-2998 colon = tested on: HCC-2998 colon
K-562 leukemia = tested on: K-562 leukemia
SK-MEL-2 melanoma = tested on: SK-MEL-2 melanoma
SK-MEL-5 melanoma = tested on: SK-MEL-5 melanoma
CCRF-CEM leukemia = tested on: CCRF-CEM leukemia

Row | Compound | TGI (NCI-H23 lung) [µM] | TGI (SNB-19 CNS) [µM] | TGI (T-47D breast) [µM] | TGI (SF-295 CNS) [µM] | TGI (HL-60(TB) leukemia) [µM] | TGI (HCC-2998 colon) [µM] | TGI (K-562 leukemia) [µM] | TGI (SK-MEL-2 melanoma) [µM] | TGI (SK-MEL-5 melanoma) [µM] | GI50 (CCRF-CEM leukemia) [µM] | TGI (CCRF-CEM leukemia) [µM] | GI50 (SNB-19 CNS) [µM] | GI50 (T-47D breast) [µM] | GI50 (SF-295 CNS) [µM] | GI50 (HL-60(TB) leukemia) [µM] | GI50 (K-562 leukemia) [µM] | GI50 (SK-MEL-2 melanoma) [µM] | GI50 (SK-MEL-5 melanoma) [µM] | GI50 (NCI-H23 lung) [µM] | GI50 (HCC-2998 colon) [µM]
1 | NCCCN(CCCN)CCN(CCN(CCCN)CCCN)CCN(CCCN)CCCN | > 100 | > 100 | > 100 | > 100 | > 100 | > 100 | > 100 | > 100 | > 100 | – | – | – | – | – | – | – | – | – | – | –
2 | C[C@@H]1CC[C@H]2C(C(O)CCCCC(O)C3=C(C(F)(F)F)O[C@@H]4O[C@@]5(C)CC[C@H]6[C@H](C)CC[C@@H]3[C@@]46OO5)=C(C(F)(F)F)O[C@@H]3O[C@@]4(C)CC[C@@H]1[C@]32OO4 (some centres undefined) | – | > 100 | 9.02 | > 100 | > 100 | – | > 100 | > 100 | > 100 | 14.3 | > 100 | > 100 | 2.52 | 53.7 | 6.44 | 16.2 | > 100 | 24.7 | – | –
3 | c1ccc2c(c1)CCc1c-2n(CCN2CCOCC2)c2ccccc12 | > 100 | > 100 | > 100 | > 100 | – | > 100 | > 100 | 25.8 | 51.2 | – | 61.5 | – | – | – | – | – | – | – | – | –
4 | NNC(=O)Cn1c2ccc(Br)cc2c2nc3ccccc3nc21 | > 100 | > 100 | > 100 | > 100 | – | – | > 100 | > 100 | > 100 | – | – | – | – | – | – | – | – | – | – | –
5 | COC(=O)c1c(OC(C)=O)ccc2c1c1c(n2C)C(=O)c2ccccc2C1=O | 61.2 | > 100 | 36.9 | 67.8 | > 100 | 63.5 | > 100 | 96.1 | 47 | – | – | – | – | – | – | – | – | – | – | –
6 | COc1ccc(-n2c(=O)n(C)c(=O)n2-c2ccc(OC)cc2)cc1 | > 100 | > 100 | > 100 | > 100 | > 100 | – | > 100 | > 100 | > 100 | – | > 100 | – | – | – | – | – | – | – | – | –
7 | CSC1=N/C(=C\c2ccco2)C(=O)N1CN1CCOCC1 | > 100 | > 100 | > 100 | > 100 | – | 97 | > 100 | > 100 | > 80.3 | – | > 90.3 | – | – | – | – | – | – | – | – | –
8 | O=C1/C(=N\S(=O)(=O)c2ccccc2)C([n+]2ccc(Cc3ccccc3)cc2)=C([O-])c2ccccc21 | 1.36 | 3.3 | 13 | 3.22 | – | 2.51 | > 100 | 3 | 0.302 | – | > 100 | – | – | – | – | – | – | – | – | –
9 | O=C1C(=O)c2ccccc2C(O)=C1CCCc1ccc(Oc2ccccc2)cc1 | 19.1 | > 100 | – | 74.3 | 47.9 | 74.3 | > 100 | 83.4 | 10.6 | – | > 100 | – | – | – | – | – | – | – | – | –
10 | Cc1cc(N2CCCC2)nc(N(CCNc2ccnc3cc(Cl)ccc23)Cc2ccco2)n1 | > 100 | 70.2 | 6.5 | 16.1 | – | 56.7 | > 100 | > 100 | 3.28 | 2.85 | > 100 | 5.67 | 2.39 | 2.07 | – | 2.26 | 18 | 1.78 | 2.75 | 4.58
